# Laboratory results published in ChEMBL document CHEMBL1143634, “Calculating virtual log P in the alkane/water system (log P(N)(alk)) and its derived parameters deltalog P(N)(oct-alk) and log D(pH)(alk)” (J Med Chem, 2005).
# Experiment: Lipophilicity determined as logarithm of the partition coefficient in the alkane/water system
# Conditions: octanol/water
row,SMILES,Log PNalk
1,Nc1cccc([N+](=O)[O-])c1 [3-NITROANILINE],-0.46
2,O=C(O)c1ccc(O)cc1 [PARABEN],-1.82
3,CC(C)(C)NC[C@H](O)COc1ccccc1C1CCCC1 [PENBUTOLOL],3.06
4,O=Cc1ccccc1 [BENZALDEHYDE],1.12
5,COc1ccc(O)cc1 [MEQUINOL],-1.03
6,C[C@]12C[C@H](O)[C@H]3[C@@H](CCC4=CC(=O)CC[C@@]43C)[C@@H]1CC[C@@H]2C(=O)CO [CORTICOSTERONE],-1.62
7,COCCc1ccc(OCC(O)CNC(C)C)cc1 (stereo not given) [METOPROLOL],-0.38
8,O=C(O)CCl [CHLOROACETIC ACID],-3.14
9,CN1CCC(=C2c3ccccc3CCc3cccnc32)CC1 [AZATADINE],1.82
10,CCCC(C)C1(CC)C(=O)NC(=O)NC1=O (stereo not given) [PENTOBARBITAL],-1.22
11,CSC,0.98
12,[O-][S+](c1ccccc1)c1ccccc1,0.67
13,Ic1ccccc1 [IODOBENZENE],3.33
14,O=[N+]([O-])c1ccc(/C=N/O)o1 [NIFUROXIME],-1.1
15,CS(=O)(=O)c1ccccc1 [METHYLPHENYLSULFONE],-0.87
16,Cn1c(=O)c2[nH]cnc2n(C)c1=O.O [THEOPHYLLINE],-1.7
17,CCN [ETHYLAMINE],-1.77
18,Cc1ccc(C)c(O)c1,0.38
19,CC(Cl)(Cl)Cl [TRICHLOROETHANE],2.71
20,CCC(C)=O [BUTANONE],-0.25
21,CN(C)CCCN1c2ccccc2Sc2ccc(Cl)cc21 [CHLORPROMAZINE],4.37
22,Oc1ccc2ccccc2c1 [BETANAPHTHOL],0.3
23,OCCOCCN1CCN(C(c2ccccc2)c2ccc(Cl)cc2)CC1 (stereo not given) [HYDROXYZINE],1.25

row,SMILES,Log PNalk
1,O=C(CCCN1CCC(O)(c2ccc(Cl)cc2)CC1)c1ccc(F)cc1 [HALOPERIDOL],1.53
2,Clc1ccccc1 [CHLOROBENZENE],2.99
3,C[C@]12CCC(=O)C=C1CC[C@@H]1[C@@H]2[C@@H](O)C[C@]2(C=O)[C@@H](C(=O)CO)CC[C@@H]12 [ALDOSTERONE],-2.7
4,Cc1cc(C)cc(O)c1,0.32
5,CCCCCO [1-PENTANOL],-0.4
6,"Oc1c(Cl)cccc1Cl [2,6-DICHLOROPHENOL]",1.31
7,Nc1cccc(Cl)c1 [3-CHLOROANILINE],0.71
8,C=CCC1(C(C)CCC)C(=O)NC(=O)NC1=O (stereo not given) [SECOBARBITAL],-0.99
9,Nc1ccc(Cl)cc1 [4-CHLOROANILINE],0.57
10,O=[N+]([O-])c1ccccc1 [NITROBENZENE],1.55
11,C=CCc1ccccc1OCC(O)CNC(C)C (stereo not given) [ALPRENOLOL],1.3
12,Nc1ccccc1[N+](=O)[O-] [2-NITROANILINE],0.31
13,CNc1ccccc1,1.11
14,CC(C1=C(CCN(C)C)Cc2ccccc21)c1ccccn1 (stereo not given),1.65
15,Cc1ccccc1O [ORTHOCRESOL],0.25
16,COc1cccc(O)c1 [1-hydroxy-3-methoxybenzene],-0.88
17,OCc1ccccc1 [BENZYL ALCOHOL],-0.62
18,CSc1ccccc1,2.81
19,CNC(=O)Oc1ccc2c(c1)[C@]1(C)CCN(C)[C@@H]1N2C [PHYSOSTIGMINE],-0.46
20,CC(C(=O)O)c1cccc(C(=O)c2ccccc2)c1 (stereo not given) [KETOPROFEN],0
21,C[S+]([O-])c1ccccc1 (stereo not given) [METHYLPHENYLSULFOXIDE],-1.52
22,CC(=O)[C@H]1CC[C@H]2[C@@H]3CC=C4C[C@@H](O)CC[C@]4(C)[C@H]3CC[C@]12C [PREGNENOLONE],0.62
23,Cc1ccccc1N [O-TOLYLAMINE],0.47

row,SMILES,Log PNalk
1,COc1cccc([C@@]2(O)CCCC[C@@H]2CN(C)C)c1 [TRAMADOL],1.82
2,C[C@]12CC[C@H]3[C@@H](CCC4=CC(=O)CC[C@@]43C)[C@@H]1CC[C@@H]2C(=O)CO [DESOXYCORTICOSTERONE],0.48
3,CC(=O)c1ccccc1 [ACETOPHENONE],1.14
4,Oc1ccccc1 [PHENOL],-0.82
5,CO [METHYL ALCOHOL],-2.8
6,CN(C)c1ccccc1,2.4
7,Oc1cc(Cl)cc(Cl)c1,0.35
8,Oc1ccc(C(F)(F)F)cc1,-0.15
9,Oc1ccccc1Cl [2-CHLOROPHENOL],0.76
10,COC(=O)c1ccccc1 [METHYL BENZOATE],2.13
11,CC(C)c1ccccc1O,0.96
12,Cc1ccc(O)c(C)c1,0.34
13,CC(N)Cc1ccccc1 (stereo not given) [AMPHETAMINE],0.73
14,CCN(CC)CCOC(=O)c1ccc(N)cc1 [PROCAINE],-0.67
15,C[C@]12CCC(=O)C=C1CC[C@@H]1[C@@H]2CC[C@@]2(C)[C@H]1CC[C@]2(O)C(=O)CO [CORTODOXONE],-1
16,C1CCSC1 [TETRAHYDROTHIOPHENE],1.59
17,CCC1(CC)C(=O)NC(=O)NC1=O [BARBITAL],-2.15
18,CN(C)CCC(c1ccc(Cl)cc1)c1ccccn1 (stereo not given) [CHLORPHENIRAMINE],2.09
19,CCC(=O)O [PROPIONIC ACID],-2.14
20,CC(=O)[C@H]1CC[C@H]2[C@@H]3CCC4=CC(=O)CC[C@]4(C)[C@H]3CC[C@]12C [PROGESTERONE],1.23
21,COc1ccc(CN(CCN(C)C)c2ccccn2)cc1 [PYRILAMINE],2
22,COc1ccc2c(c1)c(CC(=O)O)c(C)n2C(=O)c1ccc(Cl)cc1 [INDOMETHACIN],0.98
23,CN1C(=O)NC(=O)C(C)(C2=CCCCC2)C1=O (stereo not given) [HEXOBARBITAL],-0.57

row,SMILES,Log PNalk
1,O=C(O)C(Cl)(Cl)Cl [TRICHLOROACETIC ACID],-2.63
2,COc1ccccc1C(=O)O,2.08
3,Brc1ccccc1 [BROMOBENZENE],3.12
4,COc1ccc(Cc2nccc3cc(OC)c(OC)cc23)cc1OC [PAPAVERINE],0.75
5,N#Cc1ccc(O)cc1 [4-CYANOPHENOL],-2.29
6,c1ccc(-c2ccncc2)cc1,1.58
7,COc1ccc([C@@H]2Sc3ccccc3N(CCN(C)C)C(=O)[C@@H]2OC(C)=O)cc1 [DILTIAZEM],1.37
8,Oc1ccc(Cl)cc1 [PARACHLOROPHENOL],-0.12
9,CC(=O)Nc1ccccc1 [ACETANILIDE],-1.7
10,CCC1(c2ccccc2)C(=O)NC(=O)NC1=O [PHENOBARBITAL],-2.75
11,CCOC(C)=O [ETHYL ACETATE],0.29
12,CN1CCC[C@H]1c1cccnc1 [NICOTINE],0.03
13,Cc1ncc2c(c1O)COC2c1ccc(Cl)cc1 (stereo not given) [CICLETANINE],-1.76
14,O=[N+]([O-])c1ccc(O)cc1 [P-NITROPHENOL],-2.15
15,O=C(O)Cc1ccccc1 [PHENYLACETIC ACID],-1.6
16,CC1CCc2cc(F)cc3c(=O)c(C(=O)O)cn1c23 (stereo not given) [FLUMEQUINE],-1.37
17,Fc1ccccc1 [FLUOROBENZENE],2.46
18,COc1ccccc1O [GUAIACOL],0.36
19,CC(C)CO [ISOBUTANOL],-0.98
20,CC(C)(C)c1ccc(C(O)CCCN2CCC(C(O)(c3ccccc3)c3ccccc3)CC2)cc1 (stereo not given) [TERFENADINE],2.63
21,Cc1ccc(Cc2cnc(NCCCCc3ncc(Br)cc3C)[nH]c2=O)cn1 [TEMELASTINE],1.28

# Experiment: Tested for fraction of oral dose absorbed orally in humans
# Type: ADME
# Conditions: human
row,SMILES,Activity
1,Cc1cc(=O)n(-c2ccccc2)n1C [ANTIPYRINE],97%
2,C=CCc1ccccc1OCC(O)CNC(C)C (stereo not given) [ALPRENOLOL],96%
3,CC(C)NCC(O)COc1cccc2[nH]ccc12 (stereo not given) [PINDOLOL],92%
4,OC[C@@H](O)[C@@H](O)[C@H](O)[C@H](O)CO [MANNITOL],26%

# Same assay, conditions: human, read-out: Activity
row,SMILES,Fa
1,O=C(O)c1cc(/N=N/c2ccc(S(=O)(=O)Nc3ccccn3)cc2)ccc1O [SULFASALAZINE],13%
